A short description of data set [1]: Propidium iodide test of cell lysis. In kind it is cell-based. As to conditions: non-permeabilized cells.
Data set [2] concerns tumor vascular endothelium of subcutaneous HCC4017 tumors. Nature of the data set: In vivo vascular disrupting effect. Details: species or system mice. As to conditions: 20 μg i.v., 24 hours. As for the experimental part: The in vivo vascular disrupting effects of PPS1-D2 were explored. Mice bearing HCC4017 tumors growing subcutaneously were injected i.v. with 20 μg of PPS1-D2. Twenty four hours later, the tumors were removed, cryosectioned, and stained for CD31 to detect vascular endothelium. […] This dose can be calculated to give an initial blood concentration that is roughly 10-fold higher than needed for maximal lysis of PS-expressing cell in vitro.

The nature of data set [3]: Toxicity of PPS1-D2 to mice. In kind it is in vivo.
In data set [4] the test system is H460 xenografts. Briefly: Inhibition of growth of H460 lung cancer xenograft. Type of data set: in vivo, mice. As for the experimental part:
Whether PPS1D1 would inhibit tumor growth in a murine model was examined. H460 cells were implanted in nude mice. Tumors were allowed grow until it reach […]. These xenografts were then treated with a daily dose of […] in four different groups that consist of PPS1D1 alone, docetaxel alone, PPS1D1 and docetaxel together or with the control peptoid (PC462D1) alone. Docetaxel is a standard chemotherapeutic treatment for non-small cell carcinoma. The activity of PPSD1 and its ability to work as a combination treatment were examined. […] This effect was extremely potent and the tumor growth was completely controlled. […] It has been reported that chemotherapy and radiation therapy increase the PS flipping in tumor microenvironment. Therefore, Docetaxel might have helped improve binding of PPS1D1 on cancer cell surface that is now displaying an increased amount of PS to be targeted. After the standard chemotherapy and radiation therapy, the target PS is highly abundant for the drug to recognize and attack.
The effect of PPS1D1 on the growth of H460 xenografts implanted in NOD/SCID immunodeficient mice was examined. Immunodeficient animals were chosen to facilitate the growth of human tumor xenografts. […] Therapy with a control peptoid (PC462D1, 0.25 mg/mouse, 3×/week ip), PPS1D1 (0.25 mg/mouse, 3×/week ip), docetaxel (0.5 mg/kg, 2×/week, ip) or the combination of PPS1D1+docetaxel was initiated when tumors were ˜100 mm3 in volume. […] Tumor tissue was harvested after 4 weeks of therapy and assessed for cell proliferation and apoptosis by immunohistochemistry. […] It is clear from studies with bavituximab that standard chemotherapy (e.g., taxanes) increases the exposure of PS resulting in elevated binding of the PS targeting agent. A similar mechanism can underlie the enhanced activity of docetaxel and PPS1D1.
All animals were housed in a pathogen-free facility with continuous access to food and water. Mice were purchased from the core breeding facility at UT Southwestern. Six to eight-week-old female NOD/SCID mice were injected with 2.5×10^6 H460 cells subcutaneously. Tumor volume was followed by twice weekly measurements with Vernier calipers. Animals were randomized and treatment was initiated with mean tumor volume of each group was 100 mm3. Four different groups used were: (I) control PC462D1, (II) PPS1D1, (III) docetaxel, and (IV) combination of PPS1D1+docetaxel. Mice (n=8/group) were treated with PPS1D1 or PC462D1 in saline by ip injection at a dose of 0.25 mg/mouse, 3 times per week on a M-W-F schedule. Docetaxel from the UT Southwestern Clinical pharmacy was diluted in saline and delivered 2×/week ip at 5 mg/kg. Animals were sacrificed after 4 weeks of therapy. Tumor tissue was snap frozen, sectioned and stained with antibodies specific for phospho-Histone H3 (Millipore, #06-570) and cleaved caspase 3 (Cell Signaling, #9664). Reactivity was developed with appropriate fluorescently conjugated secondary antibodies (Jackson ImmunoResearch) and mounted with Prolong Gold with DAPI (Invitrogen), coverslipped and evaluated by fluorescence microscopy.

In data set [5] the test system is breast cancer. As to conditions: cited from earlier work.
The nature of data set [6]: Annexin V competition on lipid ELISA. In kind it is binding. As to conditions: ELISA-like, 100 nM Annexin V. As for the experimental part: (§1) Multiple competition assays were conducted to determine whether PPS1 (or PPS1D1) competes with Annexin V, a known PS binding agent. […] Competition between Annexin V and PPS1 for binding to PS in liposomes using flow cytometry was evaluated. […] However, PPS1 directly binds PS. Also, PS-ligand binding may be much more complex than that of a typical protein-ligand binding. Typical protein ligand binding occurs via a defined binding pocket, which facilitates clear competition by other ligands that interact with the same binding pocket. But PS is a lipid in a fluid membrane, which has no defined macromolecular structure further complicating possible binding modes.
Lipids (Avanti Polar Lipids) were dissolved in chloroform at 10 μg/ml and coated on to Immulon 1B “U” bottom microtiter plates (ThermoFisher, MA). Chloroform was evaporated at room temp (in the hood) and plates were blocked with 200 μl of 1% BSA for 1 hour. Plates were washed with 3× PBS. Biotinylated PPS1D1 dissolved in blocking buffer was added and incubated for 1 hour at room temp. Plates were washed with 3× PBS and 2× Annexin binding buffer. […] Binding was detected with streptavidin-HRP (1:1000 in blocking buffer) followed by 100 μl OPD (Sigma-Aldrich, MO). The reaction was stopped with 100 μl 0.18M H2SO4 and absorbance was read at 490 nm using the spectrophotometer (Spectramax i3, Molecular Devices, CA).
A general note: In an ELISA, binding on a coated surface is turned into a signal by an enzyme label.

Data set [7] is described as follows: Annexin V / PPS1 competition on liposomes by flow cytometry. In kind it is binding. As to conditions: unlabeled Annexin V 50 nM. As for the experimental part:
as §1
Unlabeled Annexin V vs FITC-PPS1 competition. 0.1 mM liposomes (85 mol % POPC, 15 mol % DOPS) were incubated with incubated with 50 nM Annexin V in Binding Buffer (0.01 M HEPES/NaOH (pH 7.4), 0.14 M NaCl, and 2.5 mM CaCl2) with 3% BSA for lhour. FITC PPS1 was added and the solution was incubated for 1 hour at room temperature. The binding of FITC-PPS1 to liposomes was analyzed by BD Accuri™ C6 flow cytometer (Becton-Dickinson, NJ). All data were analyzed using BDAccuriC6 software.
Unlabeled PPS1 vs FITC-Annexin V competition. […] The binding of FITC-Annexin V to liposomes was analyzed by BD Accuri™ C6 flow cytometer (Becton-Dickinson, NJ). All data were analyzed using BDAccuriC6 software.
Background: A flow cytometer gives signals particle by particle.

Data set [8] in a line: On-bead competition assay. Type of data set: binding. The settings on record: Annexin V at 10, 50 and 100 nM. As for the experimental part: Experimental procedure 12: On-bead competition assay. PPS1 and PC462 were synthesized on Tentagel beads. Organic solvent was removed and the beads were washed with 3 times with PBS. The beads were then incubated with PBS containing 3% BSA for 1 hour at room temperature. These beads were then incubated with 0.1 mM liposomes (84 mol % POPC, 15 mol % DOPS and 1 mol % NBD) for 2 hours at room temperature. Beads containing liposomes were the washed with binding buffer 3 times. […] Beads were then washed with binding buffer and imaged using fluorescence Microscope (Olympus BX-53).

The conditions of data set [9]: calcium-dependent; cited from earlier work.
For data set [10] the following is noted: complexes with beta2-glycoprotein 1; cited from earlier work.
Data set [11] concerns non-small cell lung cancer (NSCLC). The settings on record: in combination with carboplatin and paclitaxel (11/17); cited from earlier work.
Data set [12] has as its system HCC4017, H460, HCC95, H1693, H1395 lung cancer cell lines. Briefly: Cell staining with Hoechst 33342 and propidium iodide (membrane integrity). Type of data set: cell-based, human. The settings on record: 0.005% Benzalkonium chloride. As for the experimental part:
It was evaluated how PPS1D1 affects viability of these PS expressing cancer cell lines. While there are difficulties of narrowing down the exact mechanism of action of a compound targeting cell membrane lipids, whether PPS1D1 has any effect on cell membrane integrity was evaluated. Cells were treated with standard DNA staining dyes Propidium iodide (PI) and Hoechst 33342. While both bind DNA, only Hoechst is cell permeable. Therefore, when treating live cells only Hoechst will stain the nucleus while PI will stain the nucleus only if the cell membrane integrity is compromised. All the lung cancer cell lines and normal HBEC30KT cells were treated with these dyes in the presence of PPS1D1 (at 1 μM and 20 μM) or a control compound PC462D1 at 20 μM and evaluated fluorescence by microscopy without fixation. […] These observations indicate that 20 μM PPS1D1 is selectively cytotoxic to PS-positive lung cancer cells.
10,000 cells of HCC4017, H460, HCC95, H1693,H1395 and HBEC30KT were plated on chamber slides (Lab-Tek, Thermo Fisher, MA). On second day, cells were treated with PPS (1 μM and 20 μM), control PC462D1 (20 μM) and 0.005% Benzalkonium chloride (BAC) in RPMI medium with 10% FBS containing 3% BSA (KSFM media with 3% BSA for HBEC30KT). Chamber slides were washed with PBS three times. Cells were then stained with Hoechst 33342 (10 μg/ml) for 30 min in dark. Chamber slides were washed with 3× PBS. Cells were then stained with propidium iodide (1 mg/ml) for 15 mins. Cells were washed with 3× PBS and imaged using Fluorescence Microscope (Olympus BX-53).

We go through five compounds from patent publication US10849875B2, “Cancer specific lipid targeted peptidomimetics” (University of Houston System, priority 2015, dated 2020).

pKd: −log10 of the molar value. Positions of bridges follow the written chain, without caps; N, C: chain ends. Non-standard residues stand in square brackets, D forms with d. Residues, ends and D or L forms follow the SMILES beside them. Chains are numbered I, II in the order given. Gly(N-piperonyl) = O=C(O)CNCc1ccc2c(c1)OCO2; N(4-MeOBn)Gly = COc1ccc(CNCC(=O)O)cc1; Nrpe = C[C@@H](NCC(=O)O)c1ccccc1; Nlys = NCCCCNCC(=O)O; βAla = NCCC(=O)O

As for `COc1ccc(CN(CC(=O)N(CCCCN)CC(=O)N[C@@H](CCCCN)C(=O)N[C@H](CCCCN)C(=O)N[C@@H](CCSC)C(=O)NCCC(=O)NCCCC[C@H](NC(=O)CCNC(=O)[C@H](CCSC)NC(=O)[C@@H](CCCCN)NC(=O)[C@H](CCCCN)NC(=O)CN(CCCCN)C(=O)CN(Cc2ccc(OC)cc2)C(=O)CN(C(=O)CN(Cc2ccc3c(c2)OCO3)C(=O)CN[C@H](C)c2ccccc2)[C@H](C)c2ccccc2)C(N)=O)C(=O)CN(C(=O)CN(Cc2ccc3c(c2)OCO3)C(=O)CN[C@H](C)c2ccccc2)[C@H](C)c2ccccc2)cc1` [PPS1-D2] (I: H-[Nrpe][Gly(N-piperonyl)][Nrpe][N(4-MeOBn)Gly][Nlys]K[dK]M[βAla]K-NH2 / II: H-[Nrpe][Gly(N-piperonyl)][Nrpe][N(4-MeOBn)Gly][Nlys]K[dK]M[βAla]; amide I:10-II:C; N-terminus assumed), the “nuclear staining by propidium iodide” value in data set [1] is on record as “nuclear staining happens only when PPS1-D2 is treated”. Further, the “disruption of tumor vascular endothelium (CD31)” value in data set [2] is reported as “disrupted tumor endothelium”. Besides, in data set [3] (mice treated with 50 μg), the signs of toxicity entry was “no signs of toxicity”. In [3] (mouse, in vivo), this compound came in with an MTD of 2 to 4 mg/kg.

Turning to `CC(=O)O[C@@]12CO[C@@H]1C[C@H](O)[C@@]1(C)C(=O)[C@H](O)C3=C(C)[C@@H](OC(=O)[C@H](O)[C@@H](NC(=O)OC(C)(C)C)c4ccccc4)C[C@@](O)([C@@H](OC(=O)c4ccccc4)[C@H]21)C3(C)C` [docetaxel, reference compound], the “tumor growth (tumor volume vs days post therapy initiation)” value in data set [4] (H460 in NOD/SCID mice, peptoids 0.25 mg/mouse 3x/week ip, docetaxel 0.5 mg/kg 2x/week ip) is “slowed tumor growth”. For the same compound, the tumor size reduction entry in [4] (H460 in nude mice, daily dose of 0.5 mg/mL) was “equally effective in reducing the size of the tumors”. Besides, the response rate in data set [5] (docetaxel alone, separate study) is 41%.

Consider “Annexin V: 35.8 kDa protein that binds PS in a calcium-dependent manner”, for which the “competition with PPS1D1 for binding to PS” value in data set [6] was “did not compete”. Further, the “competition with FITC-PPS1 binding to liposomes” value in data set [7] is given as “did not compete”. Moreover, the “removal of liposomes from PPS1 beads” value in data set [8] is listed as “None of these conditions were able to remove liposomes from beads”. For the same compound, in data set [9], the “affinity for PS” value is “nanomolar affinity”.

On to “Bavituximab: human-mouse chimeric antibody targeting PS via beta2-glycoprotein 1”, for which the pKd (commonly −log10 of the Kd, conventionally taken in molar units) in data set [10] was 9.40. The objective response is 61% in data set [5] (combination of bavituximab and docetaxel, phase II (28/46)); 65% in data set [11].

With “Benzalkonium chloride [BAC, reference compound]”, the “PI staining of cells” value in [12] is given as “PI-positive nuclei”.
